# Measurements published in patent EP1298213A1, “Variants of an Erwinia-type creatinase” (Roche Diagnostics GmbH, priority 2001, dated 2003).
# Tests used:
# [1] = tested on: Erwinia sp. DSM 97-934 creatinase variant CT1m24 (N130D, I278T), SEQ ID NO: 10; experiment: Km determination, coupled creatinase activity assay; type: biochemical; details: creatine substrate at 90, 45, 22.5, 11.3, 5.6 and 2.8 mM; 0.1 M potassium phosphate buffer pH 7.8; 25°C
# Protocol: (§1) The activity assay for creatinase and its variants was performed by using creatine as substrate and a coupled enzymatic reaction according to Guder, W. G., et al., J Clin Chem Clin Biochem 24 (1986) 889-902.
# (§2) The reaction mixture was set up by combining the following reagents:
# (§3) The assay for creatinase was carried out at 25°C and at the wavelength of 546 nm for 10 min. ΔE was calculated from the measurement points of 6 to 10 min.
# (§4) For KM determination, creatinase activity was determined according to the assay procedure described in Example 3 using six different concentrations of creatine substrate: 90 mM, 45 mM, 22.5 mM, 11.3 mM, 5.6 mM and 2.8 mM.
# [2] = tested on: Erwinia sp. DSM 97-934 creatinase variant CT2m10 (N130D, I278T, F395L), SEQ ID NO: 14; experiment: as above; type: biochemical; details: creatine substrate at 90, 45, 22.5, 11.3, 5.6 and 2.8 mM; 0.1 M potassium phosphate buffer pH 7.8; 25°C
# Protocol: as §1, §2, §3, §4
# [3] = tested on: Erwinia sp. DSM 97-934 creatinase variant CT2m28 (N130D, I304L, I278T), SEQ ID NO: 16; experiment: as above; type: biochemical; details: creatine substrate at 90, 45, 22.5, 11.3, 5.6 and 2.8 mM; 0.1 M potassium phosphate buffer pH 7.8; 25°C
# Protocol: as §1, §2, §3, §4
# [4] = tested on: Erwinia sp. DSM 97-934 creatinase variant CT2m9 (N130D, M203V, I278T), SEQ ID NO: 12; experiment: as above; type: biochemical; details: creatine substrate at 90, 45, 22.5, 11.3, 5.6 and 2.8 mM; 0.1 M potassium phosphate buffer pH 7.8; 25°C
# Protocol: as §1, §2, §3, §4
# [5] = tested on: Erwinia sp. DSM 97-934 creatinase variant CTqc2 (F59W, N130D, I278T), SEQ ID NO: 18; experiment: as above; type: biochemical; details: creatine substrate at 90, 45, 22.5, 11.3, 5.6 and 2.8 mM; 0.1 M potassium phosphate buffer pH 7.8; 25°C
# Protocol: as §1, §2, §3, §4
# [6] = tested on: Erwinia sp. DSM 97-934 creatinase variant CTsd2 (N130D, M203V, I278T, F395L), SEQ ID NO: 20; experiment: as above; type: biochemical; details: creatine substrate at 90, 45, 22.5, 11.3, 5.6 and 2.8 mM; 0.1 M potassium phosphate buffer pH 7.8; 25°C
# Protocol: as §1, §2, §3, §4
# [7] = tested on: Erwinia sp. DSM 97-934 creatinase variant CTsd7 (F59W, N130D, M203V, I278T, F395L), SEQ ID NO: 22; experiment: as above; type: biochemical; details: creatine substrate at 90, 45, 22.5, 11.3, 5.6 and 2.8 mM; 0.1 M potassium phosphate buffer pH 7.8; 25°C
# Protocol: as §1, §2, §3, §4
# [8] = tested on: Erwinia sp. DSM 97-934 creatinase, wild type, SEQ ID NO:2; experiment: as above; type: biochemical; details: creatine substrate at 90, 45, 22.5, 11.3, 5.6 and 2.8 mM; 0.1 M potassium phosphate buffer pH 7.8; 25°C
# Protocol: as §1, §2, §3, §4
# [9] = tested on: creatinase from Alcalingenes; details: reported in patent US 5,451,520; substrate creatine taken from context (b8); cited from earlier work
compound,measurement,setting,value
CN(CC(=O)O)C(=N)N [creatine],Km,[1],8.2 mM
same,Km,[2],3.4 mM
same,Km,[3],4 mM
same,Km,[4],6.3 mM
same,Km,[5],6.6 mM
same,Km,[6],2.1 mM
same,Km,[7],2 mM
same,Km,[8],4.3 mM
same,Km,[9],13 mM
